pIC50: −log10 of the molar value.
Molecular target: T1, recombinant CYP-17 (Homo sapiens, UniProt P05093)
T1 construct: expressed in transfected cells
T1 sequence (P05093 1-508): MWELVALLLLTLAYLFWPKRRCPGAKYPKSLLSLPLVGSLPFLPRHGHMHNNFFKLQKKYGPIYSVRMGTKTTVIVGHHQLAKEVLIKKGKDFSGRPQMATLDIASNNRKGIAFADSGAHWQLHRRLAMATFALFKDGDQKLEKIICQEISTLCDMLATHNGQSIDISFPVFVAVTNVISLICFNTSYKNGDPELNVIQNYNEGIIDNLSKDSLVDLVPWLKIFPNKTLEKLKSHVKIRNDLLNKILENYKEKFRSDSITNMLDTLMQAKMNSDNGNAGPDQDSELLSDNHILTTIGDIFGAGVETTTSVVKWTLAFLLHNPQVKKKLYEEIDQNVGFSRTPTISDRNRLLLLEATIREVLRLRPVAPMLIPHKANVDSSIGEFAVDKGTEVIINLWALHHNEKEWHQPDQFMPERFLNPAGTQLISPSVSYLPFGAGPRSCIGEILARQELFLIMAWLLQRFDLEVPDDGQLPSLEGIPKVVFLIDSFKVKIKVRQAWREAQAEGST
Assay: Cyp17 assay: AD293 cells over-expressing recombinant CYP-17, 3H-acetic acid release from [21-3H] 17α-hydroxyl-Pregnenolone
Assay type: cell-based
Details: AD293, 4 h, read-out: Cyp17 % @ 0.1 μM (printed in the Cyp17 IC50 column)
Protocol: Cyp17 assay protocol: AD293 cells that stably over-express recombinant CYP-17 were seeded in 96 well plates coated with poly D-lysine (15,000 cell per well) and incubated at 37° C. for 24 hours in Dulbecco's Modified Eagle Medium (DMEM) with Fetal Bovine Serum (FBS) that is stripped of hormones by charcoal treatment. The media is then removed, the cells are washed once with Phosphate buffer saline solution, and 50 μL Dulbecco's Modified Eagle Medium (DMEM) with Fetal Bovine Serum (FBS) that is stripped of hormones by charcoal treatment is added. Compounds of the disclosure are then added to the wells in eight concentration spanning 10 μM to 4.5 nM, and the plates are incubated for an additional 60 minutes at 37° C. [21-^3H] […] The media is then collected, 200 μL of chloroform is added, and the mixture is shaken for 1 hour. The aqueous layer is then separated and analyzed for the presence of ^3H-acetic acid using a Perkin Elmer Topcount NXT to determine IC50s of the compounds of the disclosure.

inhibition at 0.1 µM [%] | Structure (SMILES)
83 | COC(=O)N1CCN(c2ccc(OC[C@@H]3CO[C@@](Cn4ccnc4)(c4ccc(Cl)cc4Cl)O3)cc2)CC1 (racemic) [Entry 1]

Same assay, conditions: AD293 cells, eight concentrations 10 μM to 4.5 nM

Structure (SMILES) | pIC50
N=C(N)N1CCN(c2ccc(OC[C@@H]3CO[C@@](Cn4ccnc4)(c4ccc(Cl)cc4Cl)O3)cc2)CC1 [Entry 33] | 6.47
CC(C)CS(=O)(=O)N1CCN(c2ccc(OC[C@@H]3CO[C@@](Cn4ccnc4)(c4ccc(Cl)cc4Cl)O3)cc2)CC1 [Entry 23] | 7.35
Clc1ccc([C@]2(Cn3ccnc3)OC[C@@H](COc3ccc(N4CCN(C5=NCCO5)CC4)cc3)O2)c(Cl)c1 (racemic) [Entry 34] | 7.52
O=S(=O)(CCC(F)(F)F)N1CCN(c2ccc(OC[C@@H]3CO[C@@](Cn4ccnc4)(c4ccc(Cl)cc4Cl)O3)cc2)CC1 [Entry 27] | 6.62
COC(=O)[C@@H](NC(=O)N1CCN(c2ccc(OC[C@H]3CO[C@](Cn4ccnc4)(c4ccc(Cl)cc4Cl)O3)cc2)CC1)C(C)C [Entry 18] | 6.86

Results, then the compound that gave them:

pIC50 | Structure (SMILES)
8.00 | COC(=O)[C@@H](NC(=O)N1CCN(c2ccc(OC[C@@H]3CO[C@@](Cn4ccnc4)(c4ccc(Cl)cc4Cl)O3)cc2)CC1)C(C)C [Entry 16]
7.00 | CN(C)C(=O)N1CCN(c2ccc(OC[C@@H]3CO[C@@](Cn4ccnc4)(c4ccc(Cl)cc4Cl)O3)cc2)CC1 (racemic) [Entry 3]
6.21 | O=S(=O)(CC(F)(F)F)N1CCN(c2ccc(OC[C@@H]3CO[C@@](Cn4ccnc4)(c4ccc(Cl)cc4Cl)O3)cc2)CC1 [Entry 20]

Molecular target: T2, recombinant CYP-11 (Homo sapiens, UniProt P15538)
T2 construct: expressed in transfected cells
T2 sequence (P15538 25-503): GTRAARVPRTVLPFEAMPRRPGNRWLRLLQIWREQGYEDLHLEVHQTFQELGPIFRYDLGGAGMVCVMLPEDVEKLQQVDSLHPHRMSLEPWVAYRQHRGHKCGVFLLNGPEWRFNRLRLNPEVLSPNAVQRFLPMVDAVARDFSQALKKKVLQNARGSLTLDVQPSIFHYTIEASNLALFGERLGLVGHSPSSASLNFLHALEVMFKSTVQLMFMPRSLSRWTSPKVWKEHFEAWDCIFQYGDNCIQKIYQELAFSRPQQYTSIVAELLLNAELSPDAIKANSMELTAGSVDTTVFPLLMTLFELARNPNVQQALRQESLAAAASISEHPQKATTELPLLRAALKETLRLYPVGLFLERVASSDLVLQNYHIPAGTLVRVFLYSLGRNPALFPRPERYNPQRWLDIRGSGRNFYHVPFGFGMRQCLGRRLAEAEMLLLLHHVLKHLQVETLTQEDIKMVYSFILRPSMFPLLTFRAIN
Assay: Cyp11 assay: AD293 cells over-expressing recombinant CYP-11, cortisol formation from 11-deoxycortisol by LC/MS
Assay type: cell-based
Details: eight concentrations 10 μM to 4.5 nM
Protocol: (§1) AD293 cells that stably over-express recombinant CYP-11 were seeded in 96 well plates coated with poly D-lysine (15,000 cell per well) and incubated at 37° C. for 24 hours in Dulbecco's Modified Eagle Medium (DMEM) with Fetal Bovine Serum (FBS) that is stripped of hormones by charcoal treatment. The media is then removed, the cells are washed once with Phosphate buffer saline solution, and 50 μL Dulbecco's Modified Eagle Medium (DMEM) with Fetal Bovine Serum (FBS) that is stripped of hormones by charcoal treatment is added. Compounds of the disclosure are then added to the wells in eight concentration spanning 10 μM to 4.5 nM, and the plates are incubated for an additional 60 minutes at 37° C. 11-deoxycortisol is then added (2.0 μM) and the plates are incubated for an additional 12 hours at 37° C. After incubation, 50 uL of the supernatant (medium) is transferred into a fresh plate and 150 uL of an acetonitrile solution containing 200 ng/ml of Telmisartan is added. The sample is mixed and then placed in a centrifuge at 2000 rpm for 5 minutes.

Structure (SMILES) | pIC50
N=C(N)N1CCN(c2ccc(OC[C@@H]3CO[C@@](Cn4ccnc4)(c4ccc(Cl)cc4Cl)O3)cc2)CC1 [Entry 33] | 5.72
CC(C)CS(=O)(=O)N1CCN(c2ccc(OC[C@@H]3CO[C@@](Cn4ccnc4)(c4ccc(Cl)cc4Cl)O3)cc2)CC1 [Entry 23] | 6.41
Clc1ccc([C@]2(Cn3ccnc3)OC[C@@H](COc3ccc(N4CCN(C5=NCCO5)CC4)cc3)O2)c(Cl)c1 (racemic) [Entry 34] | 6.83
O=S(=O)(CCC(F)(F)F)N1CCN(c2ccc(OC[C@@H]3CO[C@@](Cn4ccnc4)(c4ccc(Cl)cc4Cl)O3)cc2)CC1 [Entry 27] | 5.00
COC(=O)[C@@H](NC(=O)N1CCN(c2ccc(OC[C@H]3CO[C@](Cn4ccnc4)(c4ccc(Cl)cc4Cl)O3)cc2)CC1)C(C)C [Entry 18] | 6.96

Now those with a higher pIC50, led by results:

pIC50 | Structure (SMILES)
7.00 | COC(=O)[C@@H](NC(=O)N1CCN(c2ccc(OC[C@@H]3CO[C@@](Cn4ccnc4)(c4ccc(Cl)cc4Cl)O3)cc2)CC1)C(C)C [Entry 16]
7.00 | CN(C)C(=O)N1CCN(c2ccc(OC[C@@H]3CO[C@@](Cn4ccnc4)(c4ccc(Cl)cc4Cl)O3)cc2)CC1 (racemic) [Entry 3]
7.00 | COC(=O)N1CCN(c2ccc(OC[C@@H]3CO[C@@](Cn4ccnc4)(c4ccc(Cl)cc4Cl)O3)cc2)CC1 (racemic) [Entry 1]
7.15 | O=S(=O)(CC(F)(F)F)N1CCN(c2ccc(OC[C@@H]3CO[C@@](Cn4ccnc4)(c4ccc(Cl)cc4Cl)O3)cc2)CC1 [Entry 20]

Molecular target: T3, recombinant CYP-21 (Homo sapiens, UniProt P08686)
T3 construct: expressed in transfected cells
T3 sequence (P08686 1-495): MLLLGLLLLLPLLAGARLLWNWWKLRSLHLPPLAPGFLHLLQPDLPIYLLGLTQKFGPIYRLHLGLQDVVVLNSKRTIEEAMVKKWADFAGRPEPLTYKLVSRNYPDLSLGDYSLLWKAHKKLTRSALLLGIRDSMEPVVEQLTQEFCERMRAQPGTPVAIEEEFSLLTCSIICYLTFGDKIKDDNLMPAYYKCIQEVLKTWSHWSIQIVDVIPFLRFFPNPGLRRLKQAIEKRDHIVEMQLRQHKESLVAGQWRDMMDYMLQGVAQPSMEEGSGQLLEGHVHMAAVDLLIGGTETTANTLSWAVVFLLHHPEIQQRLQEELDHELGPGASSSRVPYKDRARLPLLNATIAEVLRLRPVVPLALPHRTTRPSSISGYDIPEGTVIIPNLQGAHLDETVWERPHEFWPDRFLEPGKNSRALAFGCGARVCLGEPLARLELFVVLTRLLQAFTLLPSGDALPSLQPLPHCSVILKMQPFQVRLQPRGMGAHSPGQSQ
Assay: Cyp21 assay: AD293 cells over-expressing recombinant CYP-21, 11-deoxycortisol formation from 17α-OH Progesterone by LC/MS
Assay type: cell-based
Details: eight concentrations 10 μM to 4.5 nM
Protocol: as §1, with “Cyp21 assay protocol: AD293” for “AD293”, “CYP-21” for “CYP-11”, “(10,000” for “(15,000”, “17α-OH Progesterone” for “11-deoxycortisol”, “(1.0” for “(2.0”, “45 minutes” for “12 hours”

Structure (SMILES) | pIC50
N=C(N)N1CCN(c2ccc(OC[C@@H]3CO[C@@](Cn4ccnc4)(c4ccc(Cl)cc4Cl)O3)cc2)CC1 [Entry 33] | 5.00
CC(C)CS(=O)(=O)N1CCN(c2ccc(OC[C@@H]3CO[C@@](Cn4ccnc4)(c4ccc(Cl)cc4Cl)O3)cc2)CC1 [Entry 23] | 6.60
Clc1ccc([C@]2(Cn3ccnc3)OC[C@@H](COc3ccc(N4CCN(C5=NCCO5)CC4)cc3)O2)c(Cl)c1 (racemic) [Entry 34] | 6.37
O=S(=O)(CCC(F)(F)F)N1CCN(c2ccc(OC[C@@H]3CO[C@@](Cn4ccnc4)(c4ccc(Cl)cc4Cl)O3)cc2)CC1 [Entry 27] | 6.43
COC(=O)[C@@H](NC(=O)N1CCN(c2ccc(OC[C@H]3CO[C@](Cn4ccnc4)(c4ccc(Cl)cc4Cl)O3)cc2)CC1)C(C)C [Entry 18] | 6.14

Further lines, results first:

pIC50 | Structure (SMILES)
6.61 | COC(=O)[C@@H](NC(=O)N1CCN(c2ccc(OC[C@@H]3CO[C@@](Cn4ccnc4)(c4ccc(Cl)cc4Cl)O3)cc2)CC1)C(C)C [Entry 16]
6.80 | COC(=O)N1CCN(c2ccc(OC[C@@H]3CO[C@@](Cn4ccnc4)(c4ccc(Cl)cc4Cl)O3)cc2)CC1 (racemic) [Entry 1]
7.11 | O=S(=O)(CC(F)(F)F)N1CCN(c2ccc(OC[C@@H]3CO[C@@](Cn4ccnc4)(c4ccc(Cl)cc4Cl)O3)cc2)CC1 [Entry 20]
